Test results from ChEMBL document CHEMBL1145498, “A systematic interaction map of validated kinase inhibitors with Ser/Thr kinases” (Proc Natl Acad Sci U S A, 2007).

How the values were obtained:
[1] = biological target: Serine/threonine-protein kinase PAK 4 (Homo sapiens) (UniProt O96013)
[2] = biological target: Mitogen-activated protein kinase 6 (Homo sapiens) (UniProt Q16659)
[3] = biological target: T1, Calcium/calmodulin-dependent protein kinase type IV (Homo sapiens) (UniProt Q16566)
T1 sequence (whole entry): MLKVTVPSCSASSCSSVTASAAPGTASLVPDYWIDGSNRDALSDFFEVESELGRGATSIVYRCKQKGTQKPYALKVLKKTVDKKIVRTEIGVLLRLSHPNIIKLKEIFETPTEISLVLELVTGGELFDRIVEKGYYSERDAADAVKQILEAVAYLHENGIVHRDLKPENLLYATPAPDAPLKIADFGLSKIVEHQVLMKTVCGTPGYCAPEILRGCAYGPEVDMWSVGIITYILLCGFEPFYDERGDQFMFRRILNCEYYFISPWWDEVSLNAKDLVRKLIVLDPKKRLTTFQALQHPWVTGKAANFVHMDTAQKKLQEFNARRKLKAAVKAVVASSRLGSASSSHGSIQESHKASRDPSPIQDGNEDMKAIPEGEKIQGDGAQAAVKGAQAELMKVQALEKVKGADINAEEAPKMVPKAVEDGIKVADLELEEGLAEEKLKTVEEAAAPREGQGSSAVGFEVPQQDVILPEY

[4] = biological target: 5'-AMP-activated protein kinase catalytic subunit alpha-2 (Homo sapiens) (UniProt P54646)
Sequence of 5'-AMP-activated protein kinase catalytic subunit alpha-2 (Homo sapiens) (P54646 whole entry, looked up): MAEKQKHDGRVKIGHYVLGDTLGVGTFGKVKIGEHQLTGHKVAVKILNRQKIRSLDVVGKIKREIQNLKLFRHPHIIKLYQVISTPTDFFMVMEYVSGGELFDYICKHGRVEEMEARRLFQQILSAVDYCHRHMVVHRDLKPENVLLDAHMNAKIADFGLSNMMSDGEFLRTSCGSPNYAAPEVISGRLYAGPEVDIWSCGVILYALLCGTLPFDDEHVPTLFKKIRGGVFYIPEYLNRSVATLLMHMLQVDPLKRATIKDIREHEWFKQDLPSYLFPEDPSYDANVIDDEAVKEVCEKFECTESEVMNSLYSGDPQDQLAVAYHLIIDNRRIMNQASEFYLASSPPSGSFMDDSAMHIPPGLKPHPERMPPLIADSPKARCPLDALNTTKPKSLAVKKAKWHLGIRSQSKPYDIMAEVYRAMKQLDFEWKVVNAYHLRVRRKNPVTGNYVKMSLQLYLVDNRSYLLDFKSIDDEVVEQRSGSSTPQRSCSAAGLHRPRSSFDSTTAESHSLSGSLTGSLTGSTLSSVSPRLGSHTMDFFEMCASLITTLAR

[5] = biological target: Serine/threonine-protein kinase VRK2 (Homo sapiens) (UniProt Q86Y07)
Sequence of Serine/threonine-protein kinase VRK2 (Homo sapiens) (Q86Y07 whole entry): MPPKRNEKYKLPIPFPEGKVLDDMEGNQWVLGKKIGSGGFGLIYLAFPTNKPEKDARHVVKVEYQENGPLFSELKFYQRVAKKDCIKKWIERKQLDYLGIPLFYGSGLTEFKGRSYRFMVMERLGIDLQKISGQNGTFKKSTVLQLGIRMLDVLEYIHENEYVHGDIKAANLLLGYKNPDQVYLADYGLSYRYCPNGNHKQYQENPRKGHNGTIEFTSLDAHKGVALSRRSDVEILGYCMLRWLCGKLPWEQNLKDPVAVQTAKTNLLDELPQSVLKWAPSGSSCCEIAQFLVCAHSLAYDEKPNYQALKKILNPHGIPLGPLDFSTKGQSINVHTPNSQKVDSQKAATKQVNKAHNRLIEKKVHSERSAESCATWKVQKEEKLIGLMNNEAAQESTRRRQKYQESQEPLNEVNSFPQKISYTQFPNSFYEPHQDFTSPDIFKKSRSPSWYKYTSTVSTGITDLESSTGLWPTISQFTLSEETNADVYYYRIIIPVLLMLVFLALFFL

[6] = biological target: Serine/threonine-protein kinase PAK 5 (Homo sapiens) (UniProt Q9P286)
[7] = biological target: Serine/threonine-protein kinase RIO2 (Homo sapiens) (UniProt Q9BVS4)
[8] = biological target: Serine/threonine-protein kinase 38 (Homo sapiens) (UniProt Q15208)
Sequence of Serine/threonine-protein kinase 38 (Homo sapiens) (Q15208 2-465 limits assumed): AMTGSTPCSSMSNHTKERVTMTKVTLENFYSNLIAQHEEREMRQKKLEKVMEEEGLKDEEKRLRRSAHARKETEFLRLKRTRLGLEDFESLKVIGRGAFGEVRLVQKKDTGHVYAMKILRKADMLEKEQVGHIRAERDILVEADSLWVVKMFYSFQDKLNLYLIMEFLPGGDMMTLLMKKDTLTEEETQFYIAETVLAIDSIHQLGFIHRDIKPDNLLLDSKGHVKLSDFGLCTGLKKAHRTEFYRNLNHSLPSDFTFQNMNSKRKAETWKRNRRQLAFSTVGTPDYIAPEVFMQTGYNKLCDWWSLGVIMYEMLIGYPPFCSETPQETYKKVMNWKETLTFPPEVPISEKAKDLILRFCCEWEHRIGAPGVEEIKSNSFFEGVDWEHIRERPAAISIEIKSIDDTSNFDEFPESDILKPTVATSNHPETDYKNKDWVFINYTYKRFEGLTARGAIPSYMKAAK

[9] = biological target: Ribosomal protein S6 kinase alpha-3 (Homo sapiens) (UniProt P51812)
Sequence of Ribosomal protein S6 kinase alpha-3 (Homo sapiens) (P51812 whole entry): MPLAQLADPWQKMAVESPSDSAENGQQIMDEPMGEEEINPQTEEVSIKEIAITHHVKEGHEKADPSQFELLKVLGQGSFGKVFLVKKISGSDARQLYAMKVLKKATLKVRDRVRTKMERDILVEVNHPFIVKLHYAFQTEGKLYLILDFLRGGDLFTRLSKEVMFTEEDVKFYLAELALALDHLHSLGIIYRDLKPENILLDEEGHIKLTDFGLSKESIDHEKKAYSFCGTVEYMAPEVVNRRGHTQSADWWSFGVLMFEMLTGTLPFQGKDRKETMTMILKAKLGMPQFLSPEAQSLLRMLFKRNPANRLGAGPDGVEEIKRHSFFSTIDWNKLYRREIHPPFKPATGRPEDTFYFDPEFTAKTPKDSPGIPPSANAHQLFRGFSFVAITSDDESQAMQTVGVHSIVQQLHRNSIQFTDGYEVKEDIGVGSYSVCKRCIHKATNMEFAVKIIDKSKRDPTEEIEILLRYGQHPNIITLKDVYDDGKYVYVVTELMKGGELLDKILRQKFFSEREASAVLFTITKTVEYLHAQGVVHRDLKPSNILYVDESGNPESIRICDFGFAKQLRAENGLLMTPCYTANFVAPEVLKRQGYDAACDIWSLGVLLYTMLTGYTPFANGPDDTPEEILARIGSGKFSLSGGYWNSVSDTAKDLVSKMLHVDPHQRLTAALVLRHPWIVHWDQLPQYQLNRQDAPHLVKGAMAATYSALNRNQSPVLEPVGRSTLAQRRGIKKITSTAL

[10] = biological target: Serine/threonine-protein kinase 16 (Homo sapiens) (UniProt O75716)
Sequence of Serine/threonine-protein kinase 16 (Homo sapiens) (O75716 whole entry): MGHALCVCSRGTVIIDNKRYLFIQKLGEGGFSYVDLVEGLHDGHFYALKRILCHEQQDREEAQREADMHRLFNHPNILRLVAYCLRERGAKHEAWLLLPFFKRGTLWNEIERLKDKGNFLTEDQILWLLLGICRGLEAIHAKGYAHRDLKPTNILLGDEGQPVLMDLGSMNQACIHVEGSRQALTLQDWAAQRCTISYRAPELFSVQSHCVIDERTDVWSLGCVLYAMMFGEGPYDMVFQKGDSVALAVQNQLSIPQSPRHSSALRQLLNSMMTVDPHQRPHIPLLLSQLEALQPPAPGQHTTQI

[11] = biological target: Calcium/calmodulin-dependent protein kinase type II subunit beta (Homo sapiens) (UniProt Q13554)
Sequence of Calcium/calmodulin-dependent protein kinase type II subunit beta (Homo sapiens) (Q13554 whole entry): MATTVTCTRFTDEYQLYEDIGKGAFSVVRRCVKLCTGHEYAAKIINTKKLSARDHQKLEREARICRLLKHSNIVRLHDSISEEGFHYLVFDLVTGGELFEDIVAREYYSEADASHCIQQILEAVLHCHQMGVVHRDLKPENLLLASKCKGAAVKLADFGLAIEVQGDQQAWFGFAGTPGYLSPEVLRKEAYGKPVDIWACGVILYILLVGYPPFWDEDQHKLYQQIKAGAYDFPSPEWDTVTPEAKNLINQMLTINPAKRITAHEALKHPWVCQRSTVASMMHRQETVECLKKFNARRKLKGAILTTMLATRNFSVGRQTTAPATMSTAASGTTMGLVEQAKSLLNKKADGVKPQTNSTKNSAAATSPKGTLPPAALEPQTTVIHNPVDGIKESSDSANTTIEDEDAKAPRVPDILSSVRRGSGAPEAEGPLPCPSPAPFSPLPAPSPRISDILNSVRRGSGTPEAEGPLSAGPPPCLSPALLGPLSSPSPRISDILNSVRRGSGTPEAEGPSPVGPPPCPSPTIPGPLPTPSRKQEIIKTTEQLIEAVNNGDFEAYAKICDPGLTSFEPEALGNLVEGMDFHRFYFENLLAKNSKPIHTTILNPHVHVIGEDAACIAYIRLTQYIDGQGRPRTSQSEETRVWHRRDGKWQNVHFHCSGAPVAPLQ

[12] = biological target: T2, Dual specificity mitogen-activated protein kinase kinase 6 (Homo sapiens) (UniProt P52564)
T2 sequence (whole entry): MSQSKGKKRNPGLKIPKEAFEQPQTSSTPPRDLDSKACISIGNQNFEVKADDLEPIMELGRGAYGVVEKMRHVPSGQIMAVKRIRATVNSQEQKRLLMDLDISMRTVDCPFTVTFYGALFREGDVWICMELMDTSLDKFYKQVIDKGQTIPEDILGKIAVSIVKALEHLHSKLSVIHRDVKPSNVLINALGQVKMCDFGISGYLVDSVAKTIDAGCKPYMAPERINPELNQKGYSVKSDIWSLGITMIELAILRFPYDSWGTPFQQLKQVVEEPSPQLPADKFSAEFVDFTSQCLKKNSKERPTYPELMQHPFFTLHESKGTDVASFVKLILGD

[13] = biological target: Casein kinase I isoform gamma-3 (Homo sapiens) (UniProt Q9Y6M4)
Sequence of Casein kinase I isoform gamma-3 (Homo sapiens) (Q9Y6M4 whole entry, looked up, canonical isoform): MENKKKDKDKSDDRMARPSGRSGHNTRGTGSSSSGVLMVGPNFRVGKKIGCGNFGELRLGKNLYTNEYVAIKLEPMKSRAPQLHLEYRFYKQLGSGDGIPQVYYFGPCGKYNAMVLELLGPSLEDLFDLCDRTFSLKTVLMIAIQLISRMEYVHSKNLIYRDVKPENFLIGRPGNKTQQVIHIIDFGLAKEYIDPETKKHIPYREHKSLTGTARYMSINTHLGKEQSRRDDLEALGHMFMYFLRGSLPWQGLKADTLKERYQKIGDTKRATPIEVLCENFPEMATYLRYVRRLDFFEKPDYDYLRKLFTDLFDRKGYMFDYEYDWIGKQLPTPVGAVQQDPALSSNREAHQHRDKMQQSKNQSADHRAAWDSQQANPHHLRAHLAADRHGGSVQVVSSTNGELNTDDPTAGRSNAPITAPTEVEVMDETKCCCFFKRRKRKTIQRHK

[14] = biological target: Cyclin-dependent kinase 16 (Homo sapiens) (UniProt Q00536)
[15] = biological target: T3, 3-phosphoinositide-dependent protein kinase 1 (Homo sapiens) (UniProt O15530)
T3 sequence (whole entry): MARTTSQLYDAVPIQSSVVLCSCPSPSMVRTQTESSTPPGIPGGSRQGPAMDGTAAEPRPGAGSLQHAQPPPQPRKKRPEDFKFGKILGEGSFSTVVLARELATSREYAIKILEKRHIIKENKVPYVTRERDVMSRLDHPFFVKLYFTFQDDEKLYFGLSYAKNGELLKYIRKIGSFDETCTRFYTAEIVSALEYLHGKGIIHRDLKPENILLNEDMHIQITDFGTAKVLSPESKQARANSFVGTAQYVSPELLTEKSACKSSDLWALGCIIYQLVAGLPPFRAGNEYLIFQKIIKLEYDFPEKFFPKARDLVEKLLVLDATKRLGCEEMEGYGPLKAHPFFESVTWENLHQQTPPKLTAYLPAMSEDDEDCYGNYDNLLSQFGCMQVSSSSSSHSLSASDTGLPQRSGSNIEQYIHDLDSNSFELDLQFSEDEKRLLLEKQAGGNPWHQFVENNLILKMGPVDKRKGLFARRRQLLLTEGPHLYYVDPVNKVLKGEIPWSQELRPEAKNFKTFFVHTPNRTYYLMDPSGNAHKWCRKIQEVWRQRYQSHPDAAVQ

[16] = biological target: T4, Serine/threonine-protein kinase 17A (Homo sapiens) (UniProt Q9UEE5)
T4 sequence (whole entry): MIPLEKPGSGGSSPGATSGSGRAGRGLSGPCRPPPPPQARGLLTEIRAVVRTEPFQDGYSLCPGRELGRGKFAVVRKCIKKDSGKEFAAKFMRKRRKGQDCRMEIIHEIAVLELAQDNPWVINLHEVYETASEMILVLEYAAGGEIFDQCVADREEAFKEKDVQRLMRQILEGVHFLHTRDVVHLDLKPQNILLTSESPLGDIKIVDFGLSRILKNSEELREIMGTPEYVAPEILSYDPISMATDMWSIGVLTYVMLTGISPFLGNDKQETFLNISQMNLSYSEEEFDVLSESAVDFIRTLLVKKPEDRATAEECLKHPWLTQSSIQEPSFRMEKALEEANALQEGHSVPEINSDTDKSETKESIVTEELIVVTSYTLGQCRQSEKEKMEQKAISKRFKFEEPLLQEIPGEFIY

Sequence of Mitogen-activated protein kinase 6 (Homo sapiens) (Q16659 whole entry): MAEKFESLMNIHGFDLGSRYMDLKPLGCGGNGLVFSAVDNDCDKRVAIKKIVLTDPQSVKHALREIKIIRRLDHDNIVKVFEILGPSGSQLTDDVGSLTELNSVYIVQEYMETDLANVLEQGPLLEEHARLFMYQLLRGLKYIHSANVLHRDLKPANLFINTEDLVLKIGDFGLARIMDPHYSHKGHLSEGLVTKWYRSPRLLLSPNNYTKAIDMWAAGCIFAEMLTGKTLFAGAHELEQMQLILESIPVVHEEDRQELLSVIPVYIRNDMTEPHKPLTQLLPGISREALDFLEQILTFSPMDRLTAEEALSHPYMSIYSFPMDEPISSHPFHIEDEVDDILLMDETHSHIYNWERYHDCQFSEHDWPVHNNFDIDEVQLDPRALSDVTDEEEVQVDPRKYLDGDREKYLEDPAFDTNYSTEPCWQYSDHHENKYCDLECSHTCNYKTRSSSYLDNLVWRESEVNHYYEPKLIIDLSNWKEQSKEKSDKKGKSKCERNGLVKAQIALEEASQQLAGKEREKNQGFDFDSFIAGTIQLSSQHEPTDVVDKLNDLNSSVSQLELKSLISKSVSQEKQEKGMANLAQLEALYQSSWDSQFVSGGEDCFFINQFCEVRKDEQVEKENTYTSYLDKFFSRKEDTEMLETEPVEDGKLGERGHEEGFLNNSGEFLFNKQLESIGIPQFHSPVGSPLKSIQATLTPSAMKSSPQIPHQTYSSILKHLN
Sequence of Serine/threonine-protein kinase PAK 4 (Homo sapiens) (O96013 whole entry, looked up): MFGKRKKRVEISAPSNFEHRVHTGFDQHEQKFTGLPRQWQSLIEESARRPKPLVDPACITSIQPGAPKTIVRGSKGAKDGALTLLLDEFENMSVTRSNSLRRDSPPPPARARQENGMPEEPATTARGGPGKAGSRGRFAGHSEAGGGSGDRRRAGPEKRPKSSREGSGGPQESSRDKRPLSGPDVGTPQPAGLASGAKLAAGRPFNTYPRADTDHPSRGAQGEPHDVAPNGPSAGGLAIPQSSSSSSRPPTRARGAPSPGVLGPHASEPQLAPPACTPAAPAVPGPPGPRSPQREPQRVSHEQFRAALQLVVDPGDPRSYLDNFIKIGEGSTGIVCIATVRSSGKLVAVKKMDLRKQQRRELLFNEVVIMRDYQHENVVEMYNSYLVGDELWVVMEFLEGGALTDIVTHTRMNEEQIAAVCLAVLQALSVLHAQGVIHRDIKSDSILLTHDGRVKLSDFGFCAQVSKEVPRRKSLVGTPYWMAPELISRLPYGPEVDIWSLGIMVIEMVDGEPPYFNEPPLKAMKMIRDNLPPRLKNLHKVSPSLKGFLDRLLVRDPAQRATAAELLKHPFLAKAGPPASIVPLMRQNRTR

| SMILES | ΔTm [1] | ΔTm [2] | ΔTm [3] | ΔTm [4] | ΔTm [5] | ΔTm [6] | ΔTm [7] | ΔTm [8] | ΔTm [9] | ΔTm [10] | ΔTm [11] | ΔTm [12] | ΔTm [13] | ΔTm [14] | ΔTm [15] | ΔTm [16] |
| --- | --- | --- | --- | --- | --- | --- | --- | --- | --- | --- | --- | --- | --- | --- | --- | --- |
| Cc1nc2sccn2c(=O)c1CCN1CCC(=C(c2ccccc2)c2ccc(F)cc2)CC1 | 0.8 °C | 0.2 °C | -0.2 °C | -0.1 °C | 0.2 °C | 1 °C | 4.5 °C | 0.6 °C | 2.8 °C | 3.1 °C | 0.9 °C | 0.5 °C | 0.3 °C | -0.5 °C | -0.8 °C | 8.8 °C |
| O=C(O)c1cc(N(Cc2ccccc2O)Cc2cc(O)ccc2O)ccc1O [LAVENDUSTIN A] | 0.1 °C | 0.8 °C | 0.5 °C | -1.1 °C | -0.6 °C | -0.5 °C | 0 °C | 0.2 °C | -0.2 °C | 2.6 °C | -0.1 °C | -1.1 °C | 0.8 °C | 0 °C | 0.6 °C | 0.1 °C |
| C[S+]([O-])c1ccc(-c2nc(-c3ccc(F)cc3)c(-c3ccncc3)[nH]2)cc1 (stereo not drawn) [SB-203580] | 0.1 °C | 0 °C | 0 °C | -0.9 °C | 0.6 °C | -0.1 °C | -0.2 °C | 0.2 °C | 0.3 °C | 0.4 °C | 0 °C | -0.1 °C | 0.4 °C | -0.8 °C | -0.1 °C | 0 °C |
| C=CNC#N | 1.8 °C | 1 °C | 0.9 °C | -0.7 °C | 0.2 °C | 0.5 °C | 0 °C | 0.7 °C | 0 °C | 0 °C | 1.2 °C | 0.3 °C | 0.8 °C | 0.4 °C | -0.1 °C | 0.7 °C |
| CN(C)c1ncnc2nc[nH]c12 [DIMETHYLADENINE] | 0.5 °C | -0.1 °C | 0.1 °C | -0.6 °C | 0 °C | 0 °C | 0.1 °C | 0.3 °C | 0.6 °C | 0.5 °C | 0 °C | 0.2 °C | 0.5 °C | -0.3 °C | 0.1 °C | 1.5 °C |
| COc1cc(C[C@H]2C(=O)OC[C@@H]2Cc2ccc(OC)c(OC)c2)ccc1O [ARCTIGENIN] | 0.8 °C | 0.2 °C | -0.5 °C | -0.9 °C | 0.5 °C | 0.1 °C | -0.2 °C | 0.5 °C | -0.2 °C | 0 °C | 0.6 °C | 0.3 °C | 0.2 °C | -0.1 °C | 0 °C | 1.4 °C |
| O=C1c2ccccc2-[n+]2ccc3c([nH]c4ccccc43)c21 [FASCAPLYSIN CHLORIDE] | -0.6 °C | -1.9 °C | 0.7 °C | 0 °C | -0.8 °C | 0.3 °C | -0.9 °C | -0.5 °C | -0.1 °C | -0.1 °C | -2 °C | -0.8 °C | -0.8 °C | -0.6 °C | -2.7 °C | 1.5 °C |
| O=c1cc(N2CCOCC2)oc2c1ccc1ccccc12 | 0.2 °C | 0.4 °C | -0.1 °C | 0.4 °C | -0.1 °C | 0 °C | 0.4 °C | 0.1 °C | 0.3 °C | 0.4 °C | 0.3 °C | 0 °C | 0 °C | -0.4 °C | 0 °C | 0.6 °C |
| COc1cc(/C=C/C(=O)CC(=O)/C=C/c2ccc(O)c(OC)c2)ccc1O [CURCUMIN] | 3 °C | 1.8 °C | 2.1 °C | -0.1 °C | 1.4 °C | 1.3 °C | 2.8 °C | 2.5 °C | 3.4 °C | 0.9 °C | 1 °C | 4 °C | 0.3 °C | 0.7 °C | 0.2 °C | 7.4 °C |
| CC(=O)O/N=C1/C(=C2/C(=O)Nc3cc(Br)ccc32)Nc2ccccc21 [6-BROMOINDIRUBIN-3'-ACETOXIME] | 2.2 °C | 0.3 °C | 4.6 °C | 2 °C | 0.6 °C | 0.9 °C | 1.7 °C | 0.9 °C | 2.5 °C | 1.7 °C | 0.9 °C | 0.8 °C | 0.5 °C | 2.1 °C | 0.8 °C | 3 °C |
| CCN(CC)CCNC(=O)c1c(C)[nH]c(/C=C2\C(=O)Nc3ccc(Cl)cc32)c1C [SU-11652] | 6.4 °C | 0.8 °C | 3.3 °C | 7 °C | 0.7 °C | 4.7 °C | 1.6 °C | 2.7 °C | 8.5 °C | 6 °C | 2.8 °C | 2.4 °C | 3.8 °C | 3.5 °C | -0.7 °C | 11 °C |
| COc1cccc(-c2cc(=O)c3ccccc3o2)c1N | 0.5 °C | 0.3 °C | -0.1 °C | -0.5 °C | 0.2 °C | -0.2 °C | 0.5 °C | 0.2 °C | -0.1 °C | 0.6 °C | 0 °C | -0.1 °C | 0.1 °C | -0.2 °C | -0.2 °C | 0.7 °C |
| COc1cc(O)c2c(c1)oc(=O)c1c3cc(O)c(O)cc3oc21 [WEDELOLACTONE] | 1.6 °C | 1.5 °C | 0.8 °C | -0.8 °C | 1.2 °C | -0.3 °C | 3.6 °C | 0.5 °C | 1.8 °C | 0.1 °C | 0.7 °C | 0.2 °C | 1.5 °C | 0.1 °C | -0.4 °C | 3 °C |
